Experimental data as given in PMC12211128, “Safety, tolerability, pharmacokinetic and pharmacodynamic effects of the muscarinic M1 positive allosteric modulator VU0467319 for Alzheimer’s disease: a single ascending-dose study in healthy participants” (Alzheimer's Research & Therapy, 2025).

Test: Plasma pharmacokinetics, single ascending dose and food effect studies
Format: in vivo, human
Conditions: for %AUCext / AUC0 − last / AUC0−∞ / CL/F / Cmax / Vz/F / t½: mean (SD); for Tmax: median (min, max)
Text: Participants were screened up to 40 days prior to admission to the Vanderbilt Clinical Research Center (CRC). At admission, participants had baseline vital signs, clinical laboratory parameters and ECG were collected. The participants stayed overnight at the CRC, and in the morning performed the pre-dose cognitive and electrophysiological (ERP) batteries. Following completion of these batteries, pre-dose blood and urine for pharmacokinetic (PK) analysis was collected, as well as a second set of baseline vital signs. Participants then received an oral dose of VU319 or placebo with water. VU319 doses were assessed in five dose escalating cohorts of eight participants (60, 120, 240, 400 & 600 mg). The initial dose of 60 mg was chosen by allometric scaling of the highest no observed adverse effect level (NOAEL) in animal species and reduced by a safety factor of 10. The increase in doses following the initial dose of 60 mg followed a modified Fibonacci sequence. In each cohort, six participants received oral VU319 while two participants received placebo. The randomization of participants to either placebo or active VU319 was done using a randomly permuted block procedure at a ratio of 1:3 for each of five dosages of VU319. Participants were required to remain in the CRC for 36 h after dosing for the first four cohorts, and for 48 h for the 600 mg cohort and the food effect study due to the change in PK sampling (discussed more below). Cognitive and ERP batteries were performed five hours post-dose. The decision to escalate to the next dose cohort was determined by review and approval from an independent safety monitoring committee, based on the PK data, as well as the safety and tolerability data from the preceding dose level.
The food effect study was completed after the first 5 ascending cohorts, participants were dosed once in a fasted state and once following a controlled high fat breakfast. Based on the PK results of the single ascending dose cohorts (see results), the 120 mg dosage group was chosen for the food effect study. This dose was chosen as it was a low-middle dosage in which the pharmacokinetic parameters could move up or down depending on the addition of food. The food effect study consisted of twelve participants, ten of whom received oral 120 mg VU319, while the other two received placebo. The participants received VU319 or placebo on two separate visits to the Vanderbilt CRC. These visits were separated by at least 14 days to allow for washout. On one visit, participants were dosed in a fasted state, while on the other visit, participants were dosed 30 min after eating a controlled high-fat breakfast. The order of the fed/fast conditions were randomized and balanced so that half the cohort were dosed fasting first, and the other half fed first. Post-dose procedures were shifted 30 min to allow for breakfast, but otherwise all study procedures remained the same as in the ascending dose cohorts.
Blood samples (4 mL) were obtained by direct venipuncture into K2 EDTA tubes at 0.5 h pre-dose and at 0.5, 1, 1.5, 2, 2.5, 3, 5, 7, 9, 12, 24, 26, 28, 36, 48 and 144-hours post-dose. […] Urine samples for PK quantification were collected at pre-dose and 2, 5, 12, 24, 36 and 144-hours post-dose.
Determination of plasma and urine concentrations of VU319 and metabolite VU0481424 (VU424) was carried out in compliance with Good Laboratory Practice using a validated method at Illinois Institute of Technology Research Institute (IITRI) laboratories. Pharmacokinetic endpoints included the following VU319 parameters for plasma: area under the plasma concentration-time curve (AUC0 − 48); area under the plasma concentration-time curve extrapolated to infinity (AUC0−∞); percentage of the extrapolated area under the plasma concentration-time curve (%AUCextrap); maximum observed plasma concentration (Cmax); time (in hours) at which Cmax occurred (Tmax); clearance (Cl/F); elimination half-life (t1/2) and volume of distribution (Vd/F). […]

[1] = VU319 120 mg oral, fasted, food effect study
[2] = VU319 120 mg oral, fed, food effect study

Cn1cc2c(-c3cc(F)c(CN4Cc5ncccc5C4=O)c(F)c3)cccc2n1 [VU319]
inter-participant variability (CV%) of Cmax, AUC0last, AUC0−∞ (120 mg, fasted and fed conditions): 24–38% | AUC under fed vs fasted conditions (120 mg, food effect study): insignificantly higher | Cmax under fed vs fasted conditions, higher by (120 mg, food effect study): 51% | dose proportionality of systemic exposure (Cmax, AUC0 − last, AUC0−∞) (60 to 600 mg, linear power model): less than dose-proportional | %AUCext (VU319 60 mg oral, SAD): 4.81 (6.18) % | AUC0 − last (VU319 60 mg oral, SAD): 36.8 (10.9) µg•h/mL | AUC0−∞ (VU319 60 mg oral, SAD): 39.2 (13.3) µg•h/mL | CL/F (VU319 60 mg oral, SAD): 1.73 (0.71) L/h | Cmax (VU319 60 mg oral, SAD): 0.725 (0.209) µg/mL | Vz/F (VU319 60 mg oral, SAD): 71.8 (20.2) L | t½ (VU319 60 mg oral, SAD): 31.5 (13.3) h | Tmax (VU319 60 mg oral, SAD): 7.00 (2.50, 9.00) h | %AUCext (VU319 120 mg oral, SAD): 6.30 (3.55) % | AUC0 − last (VU319 120 mg oral, SAD): 60.1 (13.7) µg•h/mL | AUC0−∞ (VU319 120 mg oral, SAD): 59.0 (9.07) µg•h/mL | CL/F (VU319 120 mg oral, SAD): 2.07 (0.28) L/h | Cmax (VU319 120 mg oral, SAD): 0.884 (0.312) µg/mL | Vz/F (VU319 120 mg oral, SAD): 107 (6.4) L | t½ (VU319 120 mg oral, SAD): 55.4 (46.8) h | Tmax (VU319 120 mg oral, SAD): 5.00 (2.00, 24.0) h | %AUCext [1]: 5.86 (4.51) % | AUC0 − last [1]: 56.8 (18.0) µg•h/mL | AUC0−∞ [1]: 60.7 (23.3) µg•h/mL | CL/F [1]: 2.35 (1.15) L/h | Cmax [1]: 0.985 (0.38) µg/mL | Vz/F [1]: 94.4 (27.8) L | t½ [1]: 37.4 (15.9) h | Tmax [1]: 5.11 (2.50, 48.1) h | %AUCext [2]: 5.79 (4.31) % | AUC0 − last [2]: 62.5 (15.6) µg•h/mL | AUC0−∞ [2]: 66.6 (19.3) µg•h/mL | CL/F [2]: 2.01 (0.85) L/h | Cmax [2]: 1.42 (0.344) µg/mL | Vz/F [2]: 85.3 (16.4) L | t½ [2]: 36.9 (17.0) h | Tmax [2]: 5.02 (2.50, 8.97) h | %AUCext (VU319 240 mg oral, SAD): 5.48 (6.31) % | AUC0 − last (VU319 240 mg oral, SAD): 63.8 (18.4) µg•h/mL | AUC0−∞ (VU319 240 mg oral, SAD): 78.3 (15.2) µg•h/mL | CL/F (VU319 240 mg oral, SAD): 3.15 (0.58) L/h | Cmax (VU319 240 mg oral, SAD): 1.18 (0.425) µg/mL | Vz/F (VU319 240 mg oral, SAD): 143 (52.7) L | t½ (VU319 240 mg oral, SAD): 35.0 (14.5) h | Tmax (VU319 240 mg oral, SAD): 9.50 (3.00, 24.0) h | %AUCext (VU319 400 mg oral, SAD): 11.2 (4.73) % | AUC0 − last (VU319 400 mg oral, SAD): 132 (47.4) µg•h/mL | AUC0−∞ (VU319 400 mg oral, SAD): 124 (32.0) µg•h/mL | CL/F (VU319 400 mg oral, SAD): 3.42 (0.96) L/h | Cmax (VU319 400 mg oral, SAD): 1.72 (0.447) µg/mL | Vz/F (VU319 400 mg oral, SAD): 219 (21.6) L | t½ (VU319 400 mg oral, SAD): 46.2 (9.54) h | Tmax (VU319 400 mg oral, SAD): 5.98 (2.02, 48.2) h | %AUCext (VU319 600 mg oral, SAD): 5.73 (2.41) % | AUC0 − last (VU319 600 mg oral, SAD): 207 (47.1) µg•h/mL | AUC0−∞ (VU319 600 mg oral, SAD): 221 (54.6) µg•h/mL | CL/F (VU319 600 mg oral, SAD): 2.87 (0.77) L/h | Cmax (VU319 600 mg oral, SAD): 2.81 (0.64) µg/mL | Vz/F (VU319 600 mg oral, SAD): 123 (23.8) L | t½ (VU319 600 mg oral, SAD): 30.4 (4.37) h | Tmax (VU319 600 mg oral, SAD): 5.01 (2.00, 48.0) h | plasma half-life (initial findings) (first SAD cohorts, reason for changed sampling times): > 30 h | dose proportionality of systemic exposure (higher doses, 240 to 600 mg): approximately proportional to dose
